Laboratory results as given in patent US10285994B2, “Method of preventing or treating osteoporosis by neddylation inhibitor” (Chang Gung University, priority 2017, dated 2019).

Columns and labels:
RAW264.7 cells = assay: UBA3 knockdown on osteoclast differentiation, count of TRAP-positive giant osteoclasts; format: cell-based, mouse; conditions: siRNA-transfected RAW264.7, sRANKL 50 ng/ml, 3 days, FIG. 5C-5D
Method: FIGS. 5A-5D are the data respectively depicting the effect of sRANKL on the neddylation pathway and the knockdown effect of UBA3 siRNA on macrophages during osteoclast differentiation according to example 4 of the present disclosure. FIG. 5A: RAW264.7 mouse macrophages were seeded on wells and were treated with various concentrations of sRANKL (0-100 ng/ml). After 72 hours' incubation, the cells were lysed and subjected to Western blotting analysis using specific antibodies in neddylation pathway. FIG. 5B: RAW264.7 mouse macrophages were seeded on wells and transfected with UBA3 or scrambled siRNA. After culture, the transfected cells were harvested, lysed, and further analyzed by Western Blot for checking NEDD8, UBA3, and APPBP1 expressions. FIGS. 5C and 5D: the UBA3 or scrambled siRNA transfected RAW264.7 cells were further treated with sRANKL (50 ng/ml), after 3-day induction, the morphological change of macrophages to TRAP-stained positive giant osteoclasts were photographed and further counted. Data are expressed as mean±SD where *p<0.05. […]
Six hours' post-transfection, the cells were treated with sRANKL (50 ng/ml). Three days later, the effect of UBA3 knockdown on mature giant osteoclast formation on wells was photographed and counted. […]

UBA3 = assay: Western blot of UBA3 expression in RAW264.7 cells; format: cell-based, mouse; conditions: siRNA-transfected RAW264.7, FIG. 5B
Method: FIGS. 5A-5D are the data respectively depicting the effect of sRANKL on the neddylation pathway and the knockdown effect of UBA3 siRNA on macrophages during osteoclast differentiation according to example 4 of the present disclosure. FIG. 5A: RAW264.7 mouse macrophages were seeded on wells and were treated with various concentrations of sRANKL (0-100 ng/ml). After 72 hours' incubation, the cells were lysed and subjected to Western blotting analysis using specific antibodies in neddylation pathway. FIG. 5B: RAW264.7 mouse macrophages were seeded on wells and transfected with UBA3 or scrambled siRNA. After culture, the transfected cells were harvested, lysed, and further analyzed by Western Blot for checking NEDD8, UBA3, and APPBP1 expressions. FIGS. 5C and 5D: the UBA3 or scrambled siRNA transfected RAW264.7 cells were further treated with sRANKL (50 ng/ml), after 3-day induction, the morphological change of macrophages to TRAP-stained positive giant osteoclasts were photographed and further counted. Data are expressed as mean±SD where *p<0.05.
The RAW264.7 cells were starved with serum-free medium for six hours and then treated with the specified treatments. At indicated time points, the cells were washed with cold phosphate-buffered saline (PBS) and lysed in RIPA buffer containing complete protease inhibitor cocktail (Roche). […]

| Substance | differentiating number of giant osteoclasts (RAW264.7 cells) | knockdown of UBA3 expression (UBA3) |
| --- | --- | --- |
| UBA3 siRNA 2: siRNA targeting UBA3, sense SEQ ID NO: 3, anti-sense SEQ ID NO: 4 (sense GGAUCAAUGGAAUGCUGAUTT; antisense TTCCUAGUUACCUUACGACUA; chemistry not given here; one strand is listed 3' to 5') | significantly diminished the differentiating number of giant osteoclasts | can knockdown the expression of UBA3 |
| UBA3 siRNA 3: siRNA targeting UBA3, sense SEQ ID NO: 5, anti-sense SEQ ID NO: 6 (sense CCAAGCUCCAUUGUACCUUTT; antisense TTGGUUCGAGGUAACAUGGAA; chemistry not given here; one strand is listed 3' to 5') | significantly diminished the differentiating number of giant osteoclasts | can knockdown the expression of UBA3 |
